According to patent US20230072421A1, “TARGETED RADIOPHARMACEUTICALS FOR THE DIAGNOSIS AND TREATMENT OF PROSTATE CANCER” (Bayer AS, priority 2019, published 2023):

Experiments:
[1] = system: LNCaP cells; assay: Cell proliferation assay (CellTiter-Glo, 5-day exposure), LNCaP; assay type: cell-based, human
Description: Inhibition of cell proliferation of Thorium-227 labeled PMSA SMOL ligands was tested different prostate cancer cell lines, namely 22Rv1, VCaP, C4-2 (all from ATCC, Manassas, Va., USA) and LNCaP (DMSZ, Braunschweig). Cells were seeded using the following conditions in 384 well plates (Corning) in 30 μl of growth media at 4000 cells/well for VCaP cells and 1000 cells/well for 22Rv1, C4-2 and LNCaP cells.
Cells were cultivated an incubator at 37° C. and 5% C02 over night. On the following days cells were treated in triplicates with serial dilutions of PSMA-SMOLs labeled with Th-227 at a specific activity of 375 kBq/nmol (RCP>70% as assessed by iTLC analysis; compounds where RCP was between 50-70% in individual experiments are marked with an * in the table) using a D300e Digital Dispenser (Tecan). In sister plates cell viability at treatment start (d=0) was determined using CellTiter-Glo® assay (CTG, Promega, Madison, Wis., USA), by adding 30 μl per well CTG solution, incubation for 10 min and reading of Luminescence in a PheraStarFSX instrument (BMG Labtech). After a 5-day exposure in the presenced of test compounds, cell viability of treated or untreated control cells was determined again using CellTiter-Glo® assay (Promega, Madison, Wis., USA). […] The DRC software is a Biobook Spreadsheet that was developed by Bayer AG and Bayer Business Services on the IDBS E-Workbook Suite platform (IDBS: ID Business Solutions Ltd., Guildford, UK).

[2] = system: C4-2 cells; assay: Cell proliferation assay (CellTiter-Glo, 5-day exposure), C4-2; assay type: cell-based; settings: C4-2, 1000 cells/well, Th-227 labelled at 375 kBq/nmol, mean of 1 to 6 experiments
How it was run: (§1)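 Thorium-227-labeled PSMA small-molecule ligands were applied for 5 days to prostate cancer lines plated overnight at 1000 cells/well (22Rv1, C4-2, LNCaP) or 4000 cells/well (VCaP). CellTiter-Glo luminescence gave viability at day 0 in sister plates and again after exposure.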

[3] = target: T1, PSMA-expressing LNCaP cells (Homo sapiens, UniProt Q04609); assay: Internalization assay (membrane bound and internalized Th-227); assay type: cell-based; settings: for Internalized in LNCaP fmol/10^6 cells 30 min / Membrane bound in LNCaP fmol/10^6 cells 30 min / Internalized in LNCaP fmol/10^6 cells 2 h / Membrane bound in LNCaP fmol/10^6 cells 2 h: 10 nM radiolabeled compound, Th-227 at 375 kBq/nmol, triplicates; for Internalized in LNCaP fmol/10^6 cells 30 min / Membrane bound in LNCaP fmol/10^6 cells 30 min: 30 min incubation; for Internalized in LNCaP fmol/10^6 cells 2 h / Membrane bound in LNCaP fmol/10^6 cells 2 h: 2 h incubation
T1 construct: PSMA-expressing LNCaP cells; endogenous in cells; host or cells: LNCaP
Description: For internalization assays 24 well plates (#3526, Corning) were coated with 200 μl Poly-L-Lysine (0.1 mg/ml, #3438-100-01, Fa. Cultrex) per well for 2 h at 37° C. […] Cells were incubated at 37° C. and 5% CO2 over night. On the following day 400 μl of the media were removed and a total of 200 μl growth medium added supplemented with PSMA-SMOLs labeled with Th-227 at 375 kBq/nmol in triplicates. Radiochemical purity of the labeling was analyzed by instant thin layer chromatography and found to be above 70% for all compounds used. The final concentration of radiolabeled SMOLs was in the test wells was 10 nM. Cells were incubated for 30 min or 2 h. After the incubation time supernatants were taken off and cells washed with PBS. Thereafter cells were washed twice with 0.2 ml 50 mM Glycine-HCl buffer (#55097, Sigma Aldrich) and once with PBS and the washing solutions combined in counting vials (#TK75-018, Fa. Corning) and subjected to gamma counting (1470 Wizard automatic gamma counter, Wallac). The resulting counts were attributed to membrane bound radioactivity. Cells were then lysed with 500 μl 0.3N NaOH (#181691.1211, Fa. PanReac AppliChem ITW Reagents) followed by another wash with 500 μl PBS. The NaOH lysate as well as the final wash were combined in vials and subjected to gamma counting as described above. Measured radioactivity was attributed to internalized fraction. Results were calculated as fmol of Th-227 per/10^cells in the membrane bound and internalized fractions from triplicate values.

[4] = system: VCaP cells; assay: Cell proliferation assay (CellTiter-Glo, 5-day exposure), VCaP; assay type: cell-based; settings: 4000 cells/well, Th-227 labelled at 375 kBq/nmol, mean of 1 to 6 experiments
How it was run: as §1

[5] = system: 22Rv1 cells; assay: Cell proliferation assay (CellTiter-Glo, 5-day exposure), 22Rv1; assay type: cell-based; settings: 22Rv1, 1000 cells/well, Th-227 labelled at 375 kBq/nmol, mean of 1 to 6 experiments
How it was run: as §1

[6] = Biodistribution study in LNCaP tumor-bearing mice (Th227 counted in organs); assay type: in vivo, SCID mice; settings: 500 kBq/kg; for Th-227 in Blood / Th-227 in Femur bone / Th-227 in Kidneys / Th-227 in Liver / Th-227 in Spleen / Th-227 in Tumor / Th-227 in salivary glands: study b3004
How it was run: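 Th227 in excised, weighed organs was counted with a Germanium detector at predetermined time points (n=3 mice each). This followed one i.v. injection of radiolabelled compound into testosterone-supplemented SCID mice carrying LNCaP xenografts in Matrigel, dosed once tumors reached ~50 mm^2.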

[7] = system: LNCaP human prostate cancer cells; assay: LNCaP xenograft efficacy study (T/C tumor area); assay type: in vivo, SCID mice; settings: Example II; 750 kBq/kg weekly for 5 weeks; day 120
How it was run: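 SCID mice with testosterone pellet bearing s.c. flank LNCaP xenografts (5×10^6 cells in Matrigel) were treated i.v. with a defined radioactive dose once tumors reached 35-50 mm^2 (n=10/group). Tumor area (caliper, longest diameter × perpendicular) measured 2-3× weekly; T/C ratio calculated from tumor areas when vehicle group closed.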

[8] = comparison of % injected dose per gram tissue

T1 sequence (Q04609 whole entry): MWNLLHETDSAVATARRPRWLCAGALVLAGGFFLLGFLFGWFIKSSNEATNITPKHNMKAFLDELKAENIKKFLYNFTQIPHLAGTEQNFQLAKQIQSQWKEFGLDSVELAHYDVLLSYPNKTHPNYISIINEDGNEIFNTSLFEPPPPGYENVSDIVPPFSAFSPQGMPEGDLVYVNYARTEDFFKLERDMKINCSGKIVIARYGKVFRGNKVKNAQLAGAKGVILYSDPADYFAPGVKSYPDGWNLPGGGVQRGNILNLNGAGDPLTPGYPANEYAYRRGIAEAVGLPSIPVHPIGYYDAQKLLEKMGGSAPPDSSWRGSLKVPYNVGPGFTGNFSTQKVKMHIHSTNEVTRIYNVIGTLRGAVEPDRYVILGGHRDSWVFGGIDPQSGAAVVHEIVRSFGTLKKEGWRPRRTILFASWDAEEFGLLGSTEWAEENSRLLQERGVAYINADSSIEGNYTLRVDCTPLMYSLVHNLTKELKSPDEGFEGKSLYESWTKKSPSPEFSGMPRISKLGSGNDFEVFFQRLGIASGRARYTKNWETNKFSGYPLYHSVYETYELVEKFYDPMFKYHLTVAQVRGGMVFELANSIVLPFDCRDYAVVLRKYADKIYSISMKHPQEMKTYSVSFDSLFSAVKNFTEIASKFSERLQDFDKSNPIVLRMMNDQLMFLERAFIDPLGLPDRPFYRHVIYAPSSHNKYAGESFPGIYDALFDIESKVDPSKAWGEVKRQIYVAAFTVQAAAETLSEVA

## Cc1cc(C(=O)NCCN(CCCN(CCNC(=O)c2cc(C)n(CC(=O)NCc3ccc(C(=O)N[C@@H](Cc4ccc5ccccc5n4)C(=O)NCCCC[C@H](NC(=O)N[C@@H](CCC(=O)O)C(=O)O)C(=O)O)nc3)c(=O)c2[O-])CCNC(=O)c2cc(C)n(CC(=O)NCc3ccc(C(=O)N[C@@H](Cc4ccc5ccccc5n4)C(=O)NCCCC[C@H](NC(=O)N[C@@H](CCC(=O)O)C(=O)O)C(=O)O)nc3)c(=O)c2[O-])CCNC(=O)c2cc(C)n(CC(=O)NCc3ccc(C(=O)N[C@@H](Cc4ccc5ccccc5n4)C(=O)NCCCC[C@H](NC(=O)N[C@@H](CCC(=O)O)C(=O)O)C(=O)O)nc3)c(=O)c2[O-])c([O-])c(=O)n1CC(=O)NCc1ccc(C(=O)N[C@@H](Cc2ccc3ccccc3n2)C(=O)NCCCC[C@H](NC(=O)N[C@@H](CCC(=O)O)C(=O)O)C(=O)O)nc1.[227Th+4] [34-C tetramer-227Th]
[1]; LNCaP, 1000 cells/well, Th-227 labelled at 375 kBq/nmol, 5-day exposure, mean of 1 to 6 experiments
  Proliferation assay on cancer cell lines by TTCs Default Pivot #3 IC50 [kBq/mL] LnCap 1000cells 375kBq/nmol (mean): 0.03 kBq/mL
[2]
  Proliferation assay on cancer cell lines by TTCs Default Pivot #3 IC50 [kBq/mL] C4-2 1000cells 375kBq/nmol (mean): 1.55 kBq/mL
[3]
  Internalized in LNCaP fmol/10^6 cells 30 min: 117 fmol/10^6 cells
  Membrane bound in LNCaP fmol/10^6 cells 30 min: 82 fmol/10^6 cells
  Internalized in LNCaP fmol/10^6 cells 2 h: 315 fmol/10^6 cells
  Membrane bound in LNCaP fmol/10^6 cells 2 h: 183 fmol/10^6 cells
[4]
  Proliferation assay on cancer cell lines by TTCs Default Pivot #3 IC50 [kBq/mL] VCap 4000cells 375kBq/nmol (mean): 1.96 kBq/mL
[5]
  Proliferation assay on cancer cell lines by TTCs Default Pivot #3 IC50 [kBq/mL] 22Rv1 1000cells 375kBq/nmol (mean): 1.34 kBq/mL

## CC1=CC2=C3[O][227Th-5]45678([O]C9=C(C=C(C)N(CC(=O)O)C9=[O+]4)C(=O)NCCN(CCCN(CCNC(=O)C4=C([O]5)C(=[O+]6)N(CC(=O)O)C(C)=C4)CCNC(=O)C4=C([OH+]7)C(=[O+]8)N(CC(=O)NC[C@H]5CC[C@H](C(=O)N[C@@H](Cc6ccc7ccccc7c6)C(=O)NCCCC[C@H](NC(=O)N[C@@H](CCC(=O)O)C(=O)O)C(=O)O)CC5)C(C)=C4)CCNC2=O)[O+]=C3N1CC(=O)O [1-C monomer-227Th]
[1]; compared to 1-PEG-227Th and 46-E 227Th
  antiproliferative activity on LnCap cells (in words): superior antiproliferative activity
[3]
  Internalized in LNCaP fmol/10^6 cells 30 min: 84 fmol/10^6 cells
  Membrane bound in LNCaP fmol/10^6 cells 30 min: 105 fmol/10^6 cells
  Internalized in LNCaP fmol/10^6 cells 2 h: 291 fmol/10^6 cells
  Membrane bound in LNCaP fmol/10^6 cells 2 h: 260 fmol/10^6 cells
[3]; after 30 min and 2 h, compared to 1-B-227Th bearing a DOTA chelator
  intracellular radioactivity on PSMA-expressing LNCaP cells (in words): increased intracellular radioactivity
[6]; [8]
  Accumulation in the tumor (in words): much higher accumulation in the tumor
  Background in blood, liver and spleen (in words): lower background compared to 1-F-227Th
[6]; 1 h
  Th-227 in Blood: 0.63 % ID Th-227/g organ
  Th-227 in Femur bone: 0.96 % ID Th-227/g organ
  Th-227 in Kidneys: 119.59 % ID Th-227/g organ
  Th-227 in Liver: 0.69 % ID Th-227/g organ
  Th-227 in Spleen: 4.69 % ID Th-227/g organ
  Th-227 in Tumor: 31.73 % ID Th-227/g organ
  Th-227 in salivary glands: 9.62 % ID Th-227/g organ
[6]; 24 h
  Th-227 in Blood: 0.03 % ID Th-227/g organ
  Th-227 in Femur bone: 1.08 % ID Th-227/g organ
  Th-227 in Kidneys: 72.59 % ID Th-227/g organ
  Th-227 in Liver: 0.35 % ID Th-227/g organ
  Th-227 in Spleen: 1.79 % ID Th-227/g organ
  Th-227 in Tumor: 16.36 % ID Th-227/g organ
  Th-227 in salivary glands: 1.41 % ID Th-227/g organ
[6]; 72 h
  Th-227 in Blood: 0.01 % ID Th-227/g organ
  Th-227 in Femur bone: 1.12 % ID Th-227/g organ
  Th-227 in Kidneys: 24.80 % ID Th-227/g organ
  Th-227 in Liver: 0.36 % ID Th-227/g organ
  Th-227 in Spleen: 0.76 % ID Th-227/g organ
  Th-227 in Tumor: 9.02 % ID Th-227/g organ
  Th-227 in salivary glands: 1.13 % ID Th-227/g organ
[6]; 168 h
  Th-227 in Blood: 0.00 % ID Th-227/g organ
  Th-227 in Femur bone: 1.28 % ID Th-227/g organ
  Th-227 in Kidneys: 12.66. % ID Th-227/g organ
  Th-227 in Liver: 0.33 % ID Th-227/g organ
  Th-227 in Spleen: 0.78 % ID Th-227/g organ
  Th-227 in Tumor: 6.20 % ID Th-227/g organ
  Th-227 in salivary glands: 1.23 % ID Th-227/g organ
[6]; 336 h
  Th-227 in Blood: 0.00 % ID Th-227/g organ
  Th-227 in Femur bone: 1.13 % ID Th-227/g organ
  Th-227 in Kidneys: 3.41 % ID Th-227/g organ
  Th-227 in Liver: 0.31 % ID Th-227/g organ
  Th-227 in Spleen: 0.70 % ID Th-227/g organ
  Th-227 in Tumor: 2.78 % ID Th-227/g organ
  Th-227 in salivary glands: 1.29 % ID Th-227/g organ
[7]
  Tumor response: full response
